Experimental data taken from patent US20140024677A1, “METHODS FOR INDUCING MITOCHONDRIAL BIOGENESIS” (MUSC Foundation For Research Development, priority 2012, published 2014).

What was measured:
[1] = test system: adult feline cardiomyocytes (AFC); assay type: cell-based; details: 24 hr, formoterol 10 and 30 nM
Method: Respirometry assay. […] Each experimental plate was treated with vehicle controls (DMSO<0.5%), a positive control (SRT1720, 10 μM), blank controls, and the appropriate concentration of the compound of interest. The XF-96 protocol consists of five measurements of basal OCR (1 measurement/1.5 min), injection of FCCP (0.5 μM), and three measurements of uncoupled OCR (1 measurement/1.5 min). […] Quality control evaluations considered the basal and uncoupled rates of the vehicle control, positive control, and variances between duplicate treatment wells. […] This threshold is ≧1 S.D. above the historic mean for the vehicle control.

[2] = test system: gastrocnemius muscle; assay: Dexamethasone-induced muscle wasting, gastrocnemius weight; assay type: in vivo, Mice
Source text: On the 8th day, gastrocnemius muscle was isolated from both the hind limbs and weighed. The average weights were normalized to initial body weights.

[3] = test system: renal mitochondria; details: treatment after I/R injury
Method: Mitochondrial function was measured ex vivo by isolating renal mitochondria and determining state 4 (basal respiration) and state 3 (ADP-stimulated respiratory rate).

[4] = test system: KIM-1, PGC-1α, COX I, NDUFB8 in renal cortical tissue
Method: I/R model of AKI. Eight-week-old male C57BL6 mice weighing 25-30 g were subjected to bilateral renal pedicle ligation. Briefly, renal artery and vein were isolated and blood flow was occluded with a vascular clamp for 20 min, and mice were euthanized at 24, 72, or 144 h after procedure, at which time kidneys were harvested for molecular analysis. All procedures involving animals were performed with approval from the IACUC in accordance with the NIH Guide for the Care and Use of Laboratory Animals.
Immunoblot analysis. Renal cortical tissue was lysed in RIPA buffer containing cocktail protease and phosphatase inhibitors. Total protein content was measured by the BCA assay. Fifty micrograms of total protein were loaded into SDS-PAGE gels and immunoblots were performed as previously described (26). Antibodies used for immunoblot studies were obtained from the following vendors: caspase 3 (Enzo Life Sciences), GAPDH (Fitzgerald Antibodies), COX I and NDUFB8 (MitoSciences), KIM-1 (R&D Systems), and PGC-1α (Calbiochem).
mRNA analysis. Total RNA was isolated from renal cortical tissue with TRIzol (Invitrogen) according to the manufacturer's protocol and cDNA was synthesized using RevertAid First Strand cDNA Synthesis Kit (Fermentas). PCR reactions were performed using 3:1 diluted cDNA product. Primers sequences for NDUFB8 and COX I were used.
Previous in vivo and in vitro research has identified depletion of mitochondrial function and abundance in models of hypoxia correlated with dysfunctional kidney function.

[5] = test system: I/R induced AKI; details: after five doses started 24 h after I/R injury; 144 h
Method: Assessing renal function. For mice, blood was collected by retro-orbital eye bleed 24 h and 144 h. Creatinine levels were measured using a Quantichrom Creatinine Assay Kit (BioAssay Systems, Hayward, Calif.) according to the manufacturer's protocol.

[6] = test system: mtDNA in kidney cortex; assay: mtDNA copy number in kidney of dosed mice (D-loop/apoB); assay type: in vivo, C57BL/6 mice; details: 72 h after daily repeated i.p. injection with 100 mg/kg (so in the source)
Source text: (§1) Mitochondrial DNA Content.

[7] = test system: mtDNA in heart; assay: mtDNA copy number in heart of dosed mice (D-loop/apoB); assay type: in vivo, C57BL/6 mice
Source text: as §1

CC(C)NC[C@H](O)c1ccc(O)c(O)c1.Cl [isoproterenol, (R)-3,4-Dihydroxy-α-(isopropylaminomethyl)benzyl alcohol hydrochloride]
Change in FCCP-uncoupled OCR [1]: did not have any significant effects

(3R)-N-methyl-3-(2-methylphenoxy)-3-phenylpropan-1-amine [Tomoxetine]
Gastrocnemius muscle weight in DEX-treated mice ([2]; co-injected with dexamethasone 25 mg/kg i.p. for 7 days, formoterol 100/300 ug/Kg i.p., atomoxetine 100 ug/kg i.p.): restored atrophied muscle back to normal

COc1ccc(C[C@@H](C)NC[C@H](O)c2ccc(O)c(NC=O)c2)cc1 (racemic) [formoterol, rac-(R,R)—N-[2-hydroxy-5-[1-hydroxy-2-[1-(4-methoxyphenyl)propan-2-ylamino]ethyl]phenyl]formamide]
Mitochondrial respiration of isolated renal mitochondria (basal and state 3) [3]: completely restore | KIM-1 protein expression ([4]; 144 h post I/R injury): to the level of sham vehicle | Gene transcription and protein translation in sham animals ([4]; sham animals exposed to formoterol vs control animals): not significantly altered | COX I gene expression ([4]; treatment after I/R, 144 h): restored with treatment of formoterol after I/R, but not significantly different than the I/R vehicle group | COX I protein expression ([4]; treatment after I/R, 144 h): significantly above the I/R vehicle group | NDUFB8 gene transcription ([4]; treatment after I/R, 144 h): did not restore | NDUFB8 protein expression ([4]; treatment after I/R, 144 h): significantly above the I/R vehicle group | Total PGC-1α gene expression ([4]; treatment from 24 h post I/R injury, 144 h): significantly above the I/R vehicle group, but not fully restored to control levels | Serum creatinine (SCr) [5]: 0.29 mg/dL | mtDNA copy number increase, kidney cortex [6]: 2 fold | mtDNA copy number increase (FIG. 3C, heart figure) ([7]; 24 h, i.p. 100 mg/kg (so in the source)): 2 fold | mtDNA copy number increase (FIG. 3C, heart figure) ([7]; 72 h, daily repeated i.p. 100 mg/kg (so in the source)): 2.5 fold

C[C@H](Cc1ccc(OCC(=O)O)cc1)NC[C@H](O)c1cccc(Cl)c1.O.[Na] (relative stereo) [BRL 37344, (±)-(R*,R*)-[4-[2-[[2-(3-Chlorophenyl)-2-hydroxyethyl]amino]propyl]phenoxy]acetic acid sodium hydrate]
Change in FCCP-uncoupled OCR [1]: did not have any significant effects

C[C@@H]1C[C@H]2[C@@H]3CCC4=CC(=O)C=C[C@]4(C)[C@@]3(F)[C@@H](O)C[C@]2(C)[C@@]1(O)C(=O)CO [DEX, dexamethasone]
Decrease in gastrocnemius wt. compared to saline controls ([2]; 25 mg/kg i.p., 7 days, weight normalized to initial body weight): 15%
